US8912124B2, “Use of derivatives of (1-cyanocyclopropyl)phenylphosphinic acid, esters thereof and/or salts thereof for enhancing tolerance in plants to abiotic stress” (Bayer Cropscience AG, priority 2010, dated 2014)

Columns and labels:
Type in all cases: in vivo
[1] = system: ZEAMX=Zea mays; assay: Drought stress test on crop plants, spray application, efficacy (EF) on Zea mays; settings: percentage reduction in intensity of damage, mean of three results
Description: (§1) Seeds of monocotyledonous and dicotyledonous crop plants were placed in sandy loam in wood-fiber pots, covered with soil and cultivated in a greenhouse under good growth conditions. The test plants were treated at the early leaf stage (BBCH10-BBCH13). To ensure uniform water supply before commencement of stress, the potted plants were supplied with the maximum amount of water immediately beforehand by dam irrigation and, after application, transferred in plastic inserts in order to prevent subsequent, excessively rapid drying. The inventive compounds, formulated in the form of wettable powders (WP), wettable granules (WG), suspension concentrates (SC) or emulsion concentrates (EC), were sprayed onto the green parts of the plants as an aqueous suspension at an equivalent water application rate of 600 I/ha with addition of 0.2% wetting agent (agrotin). Substance application was followed immediately by stress treatment of the plants (cold or drought stress). For cold stress treatment, the plants are kept under the following controlled conditions: • “day”: 12 hours with illumination at 8° C. • “night”: 12 hours without illumination at 1° C.
(§2) Drought stress is induced by gradual drying out under the following conditions: • “day”: 14 hours with illumination at 26° C. • “night”: 10 hours without illumination at 18° C.
The duration of the respective stress phases was guided mainly by the state of the untreated, stressed control plants and thus varied from crop to crop. It was ended (by re-irrigating or transfer to a greenhouse with good growth conditions) as soon as irreversible damage was observed on the untreated, stressed control plants. […]
(§3) After the recovery phase had ended, the intensities of damage were rated in visual comparison to untreated, unstressed controls of the same age (in the case of drought stress) or the same growth stage (in the case of cold stress). The intensity of damage was first assessed as a percentage (100%=plants have died, 0%=like control plants). […]

[2] = system: BRSNS=Brassica napus; assay: Drought stress test on crop plants, spray application, efficacy (EF) on Brassica napus; settings: percentage reduction in intensity of damage, mean of three results
Description: as §1, §2
The duration of the respective stress phases was guided mainly by the state of the untreated, stressed control plants and thus varied from crop to crop. It was ended (by re-irrigating or transfer to a greenhouse with good growth conditions) as soon as irreversible damage was observed on the untreated, stressed control plants. In the case of dicotyledonous crops, for example oilseed rape and soya, the duration of the drought stress phase varied between 3 and 5 days, in the case of monocotyledonous crops, for example wheat, barley or corn, between 6 and 10 days. The duration of the cold stress phase varied between 12 and 14 days.
The end of the stress phase was followed by an approx. 5-7-day recovery phase, during which the plants were once again kept under good growth conditions in a greenhouse. In order to rule out any influence of the effects observed by any fungicidal action of the test compounds, it was additionally ensured that the tests proceed without fungal infection and without infection pressure.
as §3, with “plants). These values were then used to calculate the efficacy of the test compounds (=percentage reduction in the intensity of damage as a result of substance application) by the following formula:” for “plants).”
DVus: damage value of the untreated, stressed control
DVts: damage value of the plants treated with test compound
Tables A.1, A.2 and A.3 show the efficacies of selected inventive compounds of the formula (I) and of the formula (II) on different crop plants (BRSNS=Brassica napus (A.1;) TRZAS=Triticum aestivum (A.2); ZEAMX=Zea mays (A.3) under drought stress.
The values stated each represent mean values from three results of the same test.

[3] = system: TRZAS=Triticum aestivum; assay: Drought stress test on crop plants, spray application, efficacy (EF) on Triticum aestivum; settings: dosage 25 g/ha, percentage reduction in intensity of damage, mean of three results
Description: Seeds of monocotyledonous and dicotyledonous crop plants were placed in sandy loam in wood-fiber pots, covered with soil and cultivated in a greenhouse under good growth conditions. The test plants were treated at the early leaf stage (BBCH10-BBCH13). To ensure uniform water supply before commencement of stress, the potted plants were supplied with the maximum amount of water immediately beforehand by dam irrigation and, after application, transferred in plastic inserts in order to prevent subsequent, excessively rapid drying. The inventive compounds, formulated in the form of wettable powders (WP), wettable granules (WG), suspension concentrates (SC) or emulsion concentrates (EC), were sprayed onto the green parts of the plants as an aqueous suspension at an equivalent water application rate of 600 I/ha with addition of 0.2% wetting agent (agrotin). Substance application was followed immediately by stress treatment of the plants (cold or drought stress). […]
as §3

Q: Which results are given for `CCCOP(=O)(c1ccccc1F)C1(C#N)CC1` (stereo not shown) [Compound 2-158]?
A: EF (ZEAMX) ([1]; dosage 250 g/ha): >5%; EF (BRSNS) ([2]; dosage 25 g/ha): >5%

Q: With `CCCOP(=O)(c1ccccc1)C1(C#N)CC1` (stereo not shown) [Compound 2-130] as the compound, how does the “EF (ZEAMX)” value ([1]; dosage 25 g/ha) read?
A: >5%

Q: What about the “EF (BRSNS)” value ([2]; dosage 25 g/ha) of the same compound?
A: >5%

Q: With `CCOP(=O)(c1ccc(C)cc1)C1(C#N)CC1` (stereo not shown) [Compound 2-17] as the compound, how does the “EF (BRSNS)” value ([2]; dosage 250 g/ha) read?
A: >5%

Q: How did the “EF (BRSNS)” value ([2]; dosage 25 g/ha) turn out when `N#CC1(P(=O)(OC2CCCCC2)c2ccccc2)CC1` (stereo not shown) [Compound 2-142] was run?
A: >5%

Q: Which “EF (BRSNS)” value ([2]; dosage 25 g/ha) does the source give for `CCOP(=O)(c1ccccc1OC)C1(C#N)CC1` (stereo not shown) [Compound 2-18] here?
A: >5%

Q: For `CCOP(=O)(c1cccc(C)c1)C1(C#N)CC1` (stereo not shown) [Compound 2-16], which “EF (BRSNS)” value ([2]; dosage 250 g/ha) is on record?
A: >5%

Q: `CCOP(=O)(c1cccc(C(=O)O)c1)C1(C#N)CC1` (stereo not shown) [Compound 2-34] was tested. Which “EF (BRSNS)” value ([2]; dosage 25 g/ha) did it give?
A: >5%

Q: For `CCCOP(=O)(c1ccccc1Cl)C1(C#N)CC1` (stereo not shown) [Compound 2-159], which “EF (BRSNS)” value ([2]; dosage 25 g/ha) is on record?
A: >5%

Q: How did the “EF (BRSNS)” value ([2]; dosage 25 g/ha) turn out when `CCOP(=O)(c1cc(Cl)cc(Cl)c1)C1(C#N)CC1` (stereo not shown) [Compound 2-111] was run?
A: >5%

Q: Which “EF (BRSNS)” value ([2]; dosage 25 g/ha) does the source give for `CCOC(=O)c1cccc(P(=O)(OCC)C2(C#N)CC2)c1` (stereo not shown) [Compound 2-37] here?
A: >5%

Q: With `CCOP(=O)(c1cccc(OC)c1)C1(C#N)CC1` (stereo not shown) [Compound 2-19] as the compound, how does the “EF (BRSNS)” value ([2]; dosage 25 g/ha) read?
A: >5%

Q: `CC(C)COP(=O)(c1ccccc1)C1(C#N)CC1` (stereo not shown) [Compound 2-135] was tested. Which “EF (TRZAS)” value [3] did it give?
A: >5%

Q: What about the “EF (BRSNS)” value ([2]; dosage 25 g/ha) of the same compound?
A: >5%

Q: Which “EF (TRZAS)” value [3] does the source give for `CCOP(=O)(c1ccccc1)C1(C#N)CC1` (stereo not shown) [Compound 2-2, ethyl (1-cyanocyclopropyl)phenylphosphinate] here?
A: >5%

Q: What about the “EF (BRSNS)” value ([2]; dosage 25 g/ha) of the same compound?
A: >5%

Q: For `N#CC1(P(=O)(OCc2ccccc2)c2ccccc2)CC1` (stereo not shown) [Compound 2-155], which “EF (ZEAMX)” value ([1]; dosage 25 g/ha) is on record?
A: >5%

Q: And the “EF (BRSNS)” value ([2]; dosage 25 g/ha)?
A: >5%
